Source: patent US10428044B2, “3-amino-1,5,6,7-tetrahydro-4H-indol-4-ones” (Bayer Pharma Aktiengesellschaft, priority 2014, dated 2019)

Target: (recombinant) catalytic domain of human Bub1 (amino acids 704-1085) (Homo sapiens (Human), UniProt O43683)
Assay: Bub1 kinase assay (TR-FRET)
Type: biochemical
Details: ATP 10 μM final, peptide substrate 1 μM final, 60 min at 22° C., read-out: Biological Assay: Bub1 kinase assay median IC50
Method in brief: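 Compounds were serially diluted 1:3.4 from 2 mM DMSO stocks and incubated with the enzyme reaction for 60 min at 22° C. The reaction was stopped with EDTA, and biotinylated peptide phosphorylation was read by TR-FRET using Eu anti-mouse IgG, anti-phosphoserine antibody and streptavidin-XL665. IC50 was fitted by 4-parameter logistic to inhibition normalized to no-inhibitor and no-enzyme controls.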

(recombinant) catalytic domain of human Bub1 (amino acids 704-1085), sequence (O43683 704-1085): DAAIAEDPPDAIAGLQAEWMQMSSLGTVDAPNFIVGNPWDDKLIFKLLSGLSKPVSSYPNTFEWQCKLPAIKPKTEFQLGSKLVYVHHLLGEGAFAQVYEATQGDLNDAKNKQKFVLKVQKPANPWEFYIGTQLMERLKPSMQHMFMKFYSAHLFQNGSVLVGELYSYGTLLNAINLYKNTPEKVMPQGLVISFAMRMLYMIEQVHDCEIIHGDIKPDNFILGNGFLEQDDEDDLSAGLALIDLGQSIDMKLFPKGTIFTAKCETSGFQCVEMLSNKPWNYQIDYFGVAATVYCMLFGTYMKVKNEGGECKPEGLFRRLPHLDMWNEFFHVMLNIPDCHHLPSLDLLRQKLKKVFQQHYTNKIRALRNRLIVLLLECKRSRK

**Q.** Cc1c(Cl)cccc1Nc1c(-c2ccncc2)[nH]c2c1C(=O)CC(C)(C)C2 [Example 91, 3-[(3-chloro-2-methylphenyl)amino]-6,6-dimethyl-2-(pyridin-4-yl)-1,5,6,7-tetrahydro-4H-indol-4-one] was tested. Which IC50 did it give?
**A.** The IC50 was 101 nM.

**Q.** Which IC50 does the source give for Cc1ccc(Nc2c(-c3ccncc3)[nH]c3c2C(=O)CC(C)(C)C3)cc1Cl [Example 92, 3-[(3-chloro-4-methylphenyl)amino]-6,6-dimethyl-2-(pyridin-4-yl)-1,5,6,7-tetrahydro-4H-indol-4-one] here?
**A.** Its IC50 is 296 nM.

**Q.** For Cc1ccc(Cl)cc1Nc1c(-c2ccncc2)[nH]c2c1C(=O)CC(C)(C)C2 [Example 93, 3-[(5-chloro-2-methylphenyl)amino]-6,6-dimethyl-2-(pyridin-4-yl)-1,5,6,7-tetrahydro-4H-indol-4-one], which IC50 is on record?
**A.** The IC50 was 7400 nM.

**Q.** How did the IC50 turn out when CC1(C)CC(=O)c2c([nH]c(-c3ccncc3)c2Nc2cccc(Cl)c2F)C1 [Example 94, 3-[(3-chloro-2-fluorophenyl)amino]-6,6-dimethyl-2-(pyridin-4-yl)-1,5,6,7-tetrahydro-4H-indol-4-one] was run?
**A.** Its IC50 is 114 nM.

**Q.** For CC1(C)CC(=O)c2c([nH]c(-c3ccncc3)c2Nc2ccc(F)c(Cl)c2)C1 [Example 95, 3-[(3-chloro-4-fluorophenyl)amino]-6,6-dimethyl-2-(pyridin-4-yl)-1,5,6,7-tetrahydro-4H-indol-4-one], which IC50 is on record?
**A.** The IC50 was 43.7 nM.

**Q.** CC(C)C(=O)Nc1cccc(Nc2c(-c3ccncc3)[nH]c3c2C(=O)CC(C)(C)C3)c1 [Example 97, N-(3-{[6,6-dimethyl-4-oxo-2-(pyridin-4-yl)-4,5,6,7-tetrahydro-1H-indol-3-yl]amino}phenyl)-2-methylpropanamide] was tested. Which IC50 did it give?
**A.** The IC50 was 2980 nM.

**Q.** With CCC(=O)Nc1cccc(Nc2c(-c3ccncc3)[nH]c3c2C(=O)CC(C)(C)C3)c1 [Example 98, N-(3-{[6,6-dimethyl-4-oxo-2-(pyridin-4-yl)-4,5,6,7-tetrahydro-1H-indol-3-yl]amino}phenyl)propanamide] as the compound, how does the IC50 read?
**A.** The IC50 was 1540 nM.

**Q.** Which IC50 does the source give for CNC(=O)c1cccc(Nc2c(-c3ccncc3)[nH]c3c2C(=O)CC(C)(C)C3)c1 [Example 99, 3-{[6,6-dimethyl-4-oxo-2-(pyridin-4-yl)-4,5,6,7-tetrahydro-1H-indol-3-yl]amino}-N-methylbenzamide] here?
**A.** The IC50 was 2210 nM.

**Q.** CC1(C)CC(=O)c2c([nH]c(-c3ccncc3)c2Nc2ccc3[nH]ncc3c2)C1 [Example 100, 3-(1H-indazol-5-ylamino)-6,6-dimethyl-2-(pyridin-4-yl)-1,5,6,7-tetrahydro-4H-indol-4-one] was tested. Which IC50 did it give?
**A.** Its IC50 is 95.2 nM.

**Q.** How did the IC50 turn out when CC1(C)CC(=O)c2c([nH]c(-c3ccncc3)c2Nc2cccc(C(N)=O)c2)C1 [Example 101, 3-{[6,6-dimethyl-4-oxo-2-(pyridin-4-yl)-4,5,6,7-tetrahydro-1H-indol-3-yl]amino}benzamide] was run?
**A.** The IC50 was 507 nM.

**Q.** With CCCC(=O)Nc1cccc(Nc2c(-c3ccncc3)[nH]c3c2C(=O)CC(C)(C)C3)c1 [Example 102, N-(3-{[6,6-dimethyl-4-oxo-2-(pyridin-4-yl)-4,5,6,7-tetrahydro-1H-indol-3-yl]amino}phenyl)butanamide] as the compound, how does the IC50 read?
**A.** The IC50 was 954 nM.

**Q.** How did the IC50 turn out when CCOc1cccc(Nc2c(-c3ccncc3)[nH]c3c2C(=O)CC(C)(C)C3)c1 [Example 104, 3-[(3-ethoxyphenyl)amino]-6,6-dimethyl-2-(pyridin-4-yl)-1,5,6,7-tetrahydro-4H-indol-4-one] was run?
**A.** Its IC50 is 524 nM.

**Q.** CC1(C)CC(=O)c2c([nH]c(-c3ccncc3)c2Nc2cccc(OCCO)c2)C1 [Example 106, 3-{[3-(2-hydroxyethoxy)phenyl]amino}-6,6-dimethyl-2-(pyridin-4-yl)-1,5,6,7-tetrahydro-4H-indol-4-one] was tested. Which IC50 did it give?
**A.** The IC50 was 5350 nM.

**Q.** Which IC50 does the source give for CC1(C)CC(=O)c2c([nH]c(-c3ccncc3)c2Nc2cccc(OC(F)(F)F)c2)C1 [Example 107, 6,6-dimethyl-2-(pyridin-4-yl)-3-{[3-(trifluoromethoxy)phenyl]amino}-1,5,6,7-tetrahydro-4H-indol-4-one] here?
**A.** The IC50 was 164 nM.

**Q.** Which IC50 does the source give for CCCOc1cccc(Nc2c(-c3ccncc3)[nH]c3c2C(=O)CC(C)(C)C3)c1 [Example 108, 6,6-dimethyl-3-[(3-propoxyphenyl)amino]-2-(pyridin-4-yl)-1,5,6,7-tetrahydro-4H-indol-4-one] here?
**A.** The IC50 was 104 nM.

**Q.** CC(=O)Nc1cccc(Nc2c(-c3ccncc3)[nH]c3c2C(=O)CC(C)(C)C3)c1 [Example 109, N-(3-{[6,6-dimethyl-4-oxo-2-(pyridin-4-yl)-4,5,6,7-tetrahydro-1H-indol-3-yl]amino}phenyl)acetamide] was tested. Which IC50 did it give?
**A.** Its IC50 is 4560 nM.

**Q.** Which IC50 does the source give for COc1cc(Nc2c(-c3ccncc3)[nH]c3c2C(=O)CC(C)(C)C3)ccc1F [Example 110, 3-[(4-fluoro-3-methoxyphenyl)amino]-6,6-dimethyl-2-(pyridin-4-yl)-1,5,6,7-tetrahydro-4H-indol-4-one] here?
**A.** Its IC50 is 235 nM.

**Q.** With CC1(C)CC(=O)c2c([nH]c(-c3ccncc3)c2Nc2ccc(F)c(CO)c2)C1 [Example 111, 3-{[4-fluoro-3-(hydroxymethyl)phenyl]amino}-6,6-dimethyl-2-(pyridin-4-yl)-1,5,6,7-tetrahydro-4H-indol-4-one] as the compound, how does the IC50 read?
**A.** The IC50 was 2630 nM.

**Q.** With CC(O)c1cccc(Nc2c(-c3ccncc3)[nH]c3c2C(=O)CC(C)(C)C3)c1 (stereo not drawn) [Example 112, 3-{[3-(1-hydroxyethyl)phenyl]amino}-6,6-dimethyl-2-(pyridin-4-yl)-1,5,6,7-tetrahydro-4H-indol-4-one] as the compound, how does the IC50 read?
**A.** The IC50 was 3480 nM.

**Q.** For CC(=O)c1cccc(Nc2c(-c3ccncc3)[nH]c3c2C(=O)CC(C)(C)C3)c1 [Example 113, 3-[(3-acetylphenyl)amino]-6,6-dimethyl-2-(pyridin-4-yl)-1,5,6,7-tetrahydro-4H-indol-4-one], which IC50 is on record?
**A.** Its IC50 is 174 nM.

**Q.** With CC1(C)CC(=O)c2c([nH]c(-c3ccncc3)c2Nc2cccc(C(C)(C)C)c2)C1 [Example 114, 3-[(3-tert-butylphenyl)amino]-6,6-dimethyl-2-(pyridin-4-yl)-1,5,6,7-tetrahydro-4H-indol-4-one] as the compound, how does the IC50 read?
**A.** The IC50 was 8640 nM.

**Q.** CC1(C)CC(=O)c2c([nH]c(-c3ccncc3)c2Nc2cccc(OC(F)F)c2)C1 [Example 117, 3-{[3-(difluoromethoxy)phenyl]amino}-6,6-dimethyl-2-(pyridin-4-yl)-1,5,6.7-tetrahydro-4H-indol-4-one] was tested. Which IC50 did it give?
**A.** Its IC50 is 175 nM.

**Q.** How did the IC50 turn out when CC1(C)CC(=O)c2c([nH]c(-c3ccncc3)c2Nc2cccc(C(=O)OC(C)(C)C)c2)C1 [Example 118, tert-butyl 3-{[6,6-dimethyl-4-oxo-2-(pyridin-4-yl)-4,5,6,7-tetrahydro-1H-indol-3-yl]amino}benzoate] was run?
**A.** Its IC50 is 457 nM.

**Q.** With CC1(C)CC(=O)c2c([nH]c(-c3ccncc3)c2Nc2cccc(C3OCCO3)c2)C1 [Example 119, 3-{[3-(1,3-dioxolan-2-yl)phenyl]amino}-6,6-dimethyl-2-(pyridin-4-yl)-1,5,6,7-tetrahydro-4H-indol-4-one] as the compound, how does the IC50 read?
**A.** The IC50 was 2340 nM.

**Q.** COc1cc(F)ccc1Nc1c(-c2ccncc2)[nH]c2c1C(=O)CC(C)(C)C2 [Example 121, 3-[(4-fluoro-2-methoxyphenyl)amino]-6,6-dimethyl-2-(pyridin-4-yl)-1,5,6,7-tetrahydro-4H-indol-4-one] was tested. Which IC50 did it give?
**A.** Its IC50 is 323 nM.

**Q.** For CC1(C)CC(=O)c2c([nH]c(-c3ccnc(N)c3)c2Nc2ccccc2)C1 [Example 122, 2-(2-aminopyridin-4-yl)-6,6-dimethyl-3-(phenylamino)-1,5,6,7-tetrahydro-4H-indol-4-one], which IC50 is on record?
**A.** Its IC50 is 58 nM.

**Q.** For COc1ccccc1Nc1c(-c2ccncc2)[nH]c2c1C(=O)CC(C)(C)C2 [Example 124, 3-[(2-methoxyphenyl)amino]-6,6-dimethyl-2-(pyridin-4-yl)-1,5,6,7-tetrahydro-4H-indol-4-one], which IC50 is on record?
**A.** Its IC50 is 154 nM.

**Q.** How did the IC50 turn out when CCOc1cc(F)ccc1Nc1c(-c2ccncc2)[nH]c2c1C(=O)CC(C)(C)C2 [Example 125, 3-[(2-ethoxy-4-fluorophenyl)amino]-6,6-dimethyl-2-(pyridin-4-yl)-1,5,6,7-tetrahydro-4H-indol-4-one] was run?
**A.** Its IC50 is 454 nM.

**Q.** For CC1(C)CC(=O)c2c([nH]c(-c3ccnc(N4CCCC4)c3)c2Nc2ccccc2)C1 [Example 126, 6,6-dimethyl-3-(phenylamino)-2-[2-(pyrrolidin-1-yl)pyridin-4-yl]-1,5,6,7-tetrahydro-4H-indol-4-one], which IC50 is on record?
**A.** Its IC50 is 14500 nM.

**Q.** With CC1(C)CC(=O)c2c([nH]c(-c3ccnc(N4CCOCC4)c3)c2Nc2ccccc2)C1 [Example 127, 6,6-dimethyl-2-[2-(morpholin-4-yl)pyridin-4-yl]-3-(phenylamino)-1,5,6,7-tetrahydro-4H-indol-4-one] as the compound, how does the IC50 read?
**A.** Its IC50 is 7750 nM.

**Q.** Which IC50 does the source give for CCOc1ccccc1Nc1c(-c2ccncc2)[nH]c2c1C(=O)CC(C)(C)C2 [Example 128, 3-[(2-ethoxyphenyl)amino]-6,6-dimethyl-2-(pyridin-4-yl)-1,5,6,7-tetrahydro-4H-indol-4-one] here?
**A.** The IC50 was 576 nM.

**Q.** For CC1(C)CC(=O)c2c([nH]c(-c3ccncc3)c2Nc2ccc(F)c(C(F)(F)F)c2)C1 [Example 129, 3-{[4-fluoro-3-(trifluoromethyl)phenyl]amino}-6,6-dimethyl-2-(pyridin-4-yl)-1,5,6,7-tetrahydro-4H-indol-4-one], which IC50 is on record?
**A.** The IC50 was 447 nM.

**Q.** Which IC50 does the source give for CC1(C)CC(=O)c2c([nH]c(-c3ccncc3)c2Nc2ccc3ccsc3c2)C1 [Example 130, 3-(1-benzothiophen-6-ylamino)-6,6-dimethyl-2-(pyridin-4-yl)-1,5,6,7-tetrahydro-4H-indol-4-one] here?
**A.** The IC50 was 58.1 nM.

**Q.** Which IC50 does the source give for Cc1cnccc1-c1[nH]c2c(c1Nc1ccccc1)C(=O)CC(C)(C)C2 [Example 131, 6,6-dimethyl-2-(3-methylpyridin-4-yl)-3-(phenylamino)-1,5,6,7-tetrahydro-4H-indol-4-one] here?
**A.** The IC50 was 51.8 nM.

**Q.** With CC(C)C(=O)Nc1cc(-c2[nH]c3c(c2Nc2ccccc2)C(=O)CC(C)(C)C3)ccn1 [Example 132, N-{4-[6,6-dimethyl-4-oxo-3-(phenylamino)-4,5,6,7-tetrahydro-1H-indol-2-yl]pyridin-2-yl}-2-methylpropanamide] as the compound, how does the IC50 read?
**A.** The IC50 was 50.2 nM.

**Q.** How did the IC50 turn out when CC(=O)N(C(C)=O)c1cc(-c2[nH]c3c(c2Nc2ccccc2)C(=O)CC(C)(C)C3)ccn1 [Example 133, N-acetyl-N-{4-[6,6-dimethyl-4-oxo-3-(phenylamino)-4,5,6,7-tetrahydro-1H-indol-2 yl]pyridin-2-yl}acetamide] was run?
**A.** Its IC50 is 49.2 nM.
